Literature values, collected in US11980627B2, “Triple pharmaceutical composition for proteinaceous infection” (priority 2019, dated 2024).

How the values were obtained:
AD = conditions: in vivo
patients with AD = conditions: human, in vivo
AD patients = conditions: twelve months' treatment, alone or in combination
soluble amyloid protein = conditions: intravenous
Sequence of soluble amyloid protein (P05067 672-711 limits assumed): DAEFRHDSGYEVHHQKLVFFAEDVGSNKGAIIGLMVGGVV

## CC(=O)Nc1ccc(O)cc1 [Acetaminophen]
AD
  effects on AD: not found to have beneficial effects

## COc1ccc2cc([C@H](C)C(=O)O)ccc2c1 [Naproxen]
Patients with AD
  cognitive function in patients with AD: did not improve

## CC(=O)Oc1ccccc1C(=O)O [aspirin]
AD
  effects on AD: not found to have beneficial effects

## CO[C@H]1/C=C/O[C@@]2(C)Oc3c(C)c(O)c4c(O)c(c(/C=N/N5CCN(C)CC5)c(O)c4c3C2=O)NC(=O)/C(C)=C\C=C\[C@H](C)[C@H](O)[C@@H](C)[C@@H](O)[C@@H](C)[C@H](OC(C)=O)[C@@H]1C [rifampin]
AD patients
  effects on cognition or function in AD: no beneficial effects

## Solanezumab: intravenous amyloid immunotherapy; humanized monoclonal antibody to soluble amyloid protein
Soluble amyloid protein
  outcome of amyloid immunotherapy in AD: failure
